Source: patent publication US8420830B2, “Macrocyclic factor VIIa inhibitors useful as anticoagulants” (Bristol-Myers Squibb Company, priority 2006, dated 2013)
Values joined by “and” are separate entries in the source; they are usually repeats but may differ in a detail not shown here. Equal entries are not always repeated. Structures can show the parent of a compound that is named as a salt. Where two headings read alike, the source gives them in different places.

Columns and labels:
[1] = amide bond, BOP, CH2Cl2, 40.0 °C
[2] = test system: patients with acute coronary syndromes; conditions: cited from earlier work
[3] = test system: patients undergoing coronary angioplasty; conditions: cited from earlier work
[4] = test system: patients undergoing total knee replacement; conditions: cited from earlier work
Factor VIIa = biological target: T1, Factor VIIa (Homo sapiens, UniProt P08709); test: Factor VIIa assay; format: biochemical; conditions: measured in the Factor VIIa assay described above; several values in a cell are repeat determinations
T1 construct: purchased Haematologic Technologies (purified) or Novo Nordisk (recombinant)
T1 sequence (P08709 213-466 limits assumed): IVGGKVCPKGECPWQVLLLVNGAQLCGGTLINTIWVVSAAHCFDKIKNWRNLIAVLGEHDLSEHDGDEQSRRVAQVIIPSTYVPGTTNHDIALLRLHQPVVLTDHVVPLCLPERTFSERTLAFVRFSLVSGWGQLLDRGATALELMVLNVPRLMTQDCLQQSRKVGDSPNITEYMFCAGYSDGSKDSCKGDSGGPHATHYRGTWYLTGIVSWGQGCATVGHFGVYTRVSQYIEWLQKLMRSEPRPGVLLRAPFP
T1 sequence (P08709 61-212 limits assumed): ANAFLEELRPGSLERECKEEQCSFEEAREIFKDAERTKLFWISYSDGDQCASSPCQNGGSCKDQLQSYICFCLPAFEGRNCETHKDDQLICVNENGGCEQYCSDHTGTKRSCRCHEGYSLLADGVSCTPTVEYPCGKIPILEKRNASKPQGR
T1 sequence (P13726 33-251 partner limits assumed): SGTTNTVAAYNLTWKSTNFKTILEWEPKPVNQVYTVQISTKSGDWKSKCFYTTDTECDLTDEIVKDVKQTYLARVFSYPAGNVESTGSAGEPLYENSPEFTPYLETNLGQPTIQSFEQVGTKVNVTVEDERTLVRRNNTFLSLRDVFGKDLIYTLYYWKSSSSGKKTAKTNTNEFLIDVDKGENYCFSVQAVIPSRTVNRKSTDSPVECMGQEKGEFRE

[5] = amide bond; 16-membered ring; TFA; BOP/DMAP/Et3N; CH2Cl2/DMF; 40.0 °C; 2 steps

Compound	Ki (Factor VIIa)	other results
CCS(=O)(=O)c1ccc2cc1CNC(=O)[C@H](Nc1ccc3c(c1)C(=O)NC3)c1ccc(cc1)CCCC(=O)N2	–	ring closure, yield of all isomers ([1]; from CCS(=O)(=O)c1ccc(NC(=O)CCCc2ccc(C(Nc3ccc4c(c3)C(=O)NC4)C(=O)O)cc2)cc1CNC(=O)OC(C)(C)C, 6.6 mM, 6.0 h, 2 steps): 27.7%
CC(C)S(=O)(=O)c1ccc2cc1CN(C)C(=O)[C@H](Nc1ccc3c(c1)C(=O)NCC3)c1ccc(cc1)CCCC(=O)N2	–	ring closure, yield of all isomers ([1]; from CNCc1cc(NC(=O)CCCc2ccc(C(Nc3ccc4c(c3)C(=O)NCC4)C(=O)O)cc2)ccc1S(=O)(=O)C(C)C, 5.11 mM, 7.0 h): 19.9%
CC(C)S(=O)(=O)c1ccc2cc1CN(C)C(=O)[C@H](Nc1ccc3c(c1)C(=O)NC3)c1ccc(cc1)CCCC(=O)N2	–	ring closure, yield of all isomers ([1]; from CNCc1cc(NC(=O)CCCc2ccc(C(Nc3ccc4c(c3)C(=O)NC4)C(=O)O)cc2)ccc1S(=O)(=O)C(C)C, 8.05 mM, 16.0 h): 31.8%
recombinant nematode anticoagulant protein c2 [rNAPc2]	–	magnitude and duration of ischemic events [2]: reduces magnitude and duration of ischemic events; systemic thrombin generation [3]: reduces systemic thrombin generation; deep vein thrombosis [4]: prevents deep vein thrombosis
CCc1cc2ccc1[C@@H](C)COC(=O)Nc1ccc(S(=O)(=O)C3CC3)c(c1)CN(C)C(=O)[C@@H]2Nc1ccc2cc[nH]c(=O)c2c1 [Example 18, (2R,15R)-7-Cyclopropanesulfonyl-17-ethyl-4,15-dimethyl-2-(1-oxo-1,2-dihydro-isoquinolin-7-ylamino)-13-oxa-4,11-diaza-tricyclo[14.2.2.1^6,10]henicosa-1(19),6,8,10(21),16(20),17-hexaene-3,12-dione]	0.96 nM	–
CCS(=O)(=O)c1ccc2cc1CNC(=O)[C@H](Nc1ccc3c(c1)C(=O)NCC3)c1ccc(cc1)CCCC(=O)N2	–	ring closure, yield after HPLC [5]: 28.4%; ring closure, yield of all isomers ([1]; from CCS(=O)(=O)c1ccc(NC(=O)CCCc2ccc(C(Nc3ccc4c(c3)C(=O)NCC4)C(=O)O)cc2)cc1CNC(=O)OC(C)(C)C, 6.0 h, 2 steps): 28.4%
CC[C@H]1COC(=O)Nc2ccc(S(=O)(=O)C3CC3)c(c2)CN(C)C(=O)[C@H](Nc2ccc3nc[nH]c(=O)c3c2)c2ccc1cc2 [Example 65, (2R,15R)-7-Cyclopropanesulfonyl-15-ethyl-4-methyl-2-(4-oxo-3,4-dihydro-quinazolin-6-ylamino)-13-oxa-4,11-diaza-tricyclo[14.2.2.1^6,10]henicosa-1(19),6,8,10(21),16(20),17-hexaene-3,12-dione]	29.4 nM and 34 nM	–

The next lines start with results.

Ki (Factor VIIa)	Compound	other results
2530 nM	Cc1cc2ccc1[C@@H](C)COC(=O)Nc1cccc(c1)CN(CCNC(=O)OC(C)(C)C)C(=O)[C@@H]2Nc1ccc2cc[nH]c(=O)c2c1 [Example 148, {2-[(2R,15R)-15,17-Dimethyl-3,12-dioxo-2-(1-oxo-1,2-dihydro-isoquinolin-7-ylamino)-13-oxa-4,11-diaza-tricyclo[14.2.2.1^6,10]henicosa-1(19),6,8,10(21),16(20),17-hexaen-4-yl]-ethyl}-carbamic acid tert-butyl ester]	–
3100 nM	CCOC(=O)CCN1Cc2cccc(c2)NC(=O)OCCc2c(C)cc(cc2C)[C@@H](Nc2ccc3cc[nH]c(=O)c3c2)C1=O [Example 144, 3-[17,20-Dimethyl-3,12-dioxo-2-(1-oxo-1,2-dihydro-isoquinolin-7-ylamino)-13-oxa-4,11-diaza-tricyclo[14.2.2.1^6,10]henicosa-1(19),6,8,10(21),16(20),17-hexaen-4-yl]-propionic acid ethyl ester]	–
26.6 nM	CC(=O)N1CC(=O)Nc2ccc(S(=O)(=O)C(C)C)c(c2)CNC(=O)C(Nc2ccc3cc[nH]c(=O)c3c2)c2cc(C)c(c(C)c2)C1 (stereo not drawn) [Example 128, 14-Acetyl-17,20-dimethyl-2-(1-oxo-1,2-dihydro-isoquinolin-7-ylamino)-7-(propane-2-sulfonyl)-4,11,14-triaza-tricyclo[14.2.2.1^6,10]henicosa-1(19),6,8,10(21),16(20),17-hexaene-3,12-dione trifluoroacetate]	–
0.61 nM	COc1cc2ccc1[C@@H](C)COC(=O)Nc1ccc(S(=O)(=O)C3CC3)c(c1)CN(C)C(=O)[C@@H]2Nc1ccc2cc[nH]c(=O)c2c1 [Example 82, (2R,15R)-7-Cyclopropanesulfonyl-17-methoxy-4,15-dimethyl-2-(1-oxo-1,2-dihydro-isoquinolin-7-ylamino)-13-oxa-4,11-diaza-tricyclo[14.2.2.1^6,10]henicosa-1(19),6,8,10(21),16(20),17-hexaene-3,12-dione]	–
1460 nM	COC(=O)NCCN1Cc2cccc(c2)NC(=O)OC[C@H](C)c2ccc(cc2C)[C@@H](Nc2ccc3cc[nH]c(=O)c3c2)C1=O [Example 153, {2-[(2R,15R)-15,17-Dimethyl-3,12-dioxo-2-(1-oxo-1,2-dihydro-isoquinolin-7-ylamino)-13-oxa-4,11-diaza-tricyclo[14.2.2.1^6,10]henicosa-1(19),6,8,10(21),16(20),17-hexaen-4-yl]-ethyl}-carbamic acid methyl ester]	–
21.9 nM	COC(=O)N1CC(=O)Nc2ccc(S(=O)(=O)C(C)C)c(c2)CNC(=O)C(Nc2ccc3nc[nH]c(=O)c3c2)c2cc(C)c(c(C)c2)C1 (stereo not drawn) [Example 117, 17,20-Dimethyl-3,12-dioxo-2-(4-oxo-3,4-dihydro-quinazolin-6-ylamino)-7-(propane-2-sulfonyl)-4,11,14-triaza-tricyclo[14.2.2.1^6,10]henicosa-1(19),6,8,10(21),16(20),17-hexaene-14-carboxylic acid methyl ester trifluoroacetate]	–
1210 nM	Cc1cc2ccc1[C@@H](C)COC(=O)Nc1cccc(c1)CN(CCN)C(=O)[C@@H]2Nc1ccc2cc[nH]c(=O)c2c1 [Example 149, (2R,15R)-4-(2-Amino-ethyl)-15,17-dimethyl-2-(1-oxo-1,2-dihydro-isoquinolin-7-ylamino)-13-oxa-4,11-diaza-tricyclo[14.2.2.1^6,10]henicosa-1(19),6,8,10(21),16(20),17-hexaene-3,12-dione]	–
0.88 nM	Cc1cc2ccc1[C@@H](C)COC(=O)Nc1ccc(N3C(=O)C4CCC3CC4)c(c1)CN(C)C(=O)[C@@H]2Nc1ccc2cc[nH]c(=O)c2c1 [Example 168, (2R,15R)-4,15,17-Trimethyl-7-(3-oxo-2-aza-bicyclo[2.2.2]oct-2-yl)-2-(1-oxo-1,2-dihydro-isoquinolin-7-ylamino)-13-oxa-4,11-diaza-tricyclo[14.2.2.1^6,10]henicosa-1(19),6,8,10(21),16(20),17-hexaene-3,12-dione]	–
